The target in experiment [1] is α1β2(T225C,N265C)γ2 GABAAR (UniProt P18508+P47870+P62813, C260A/C282A/C312A/C319A/C341A/N289C/T249C). Kind of experiment: GABA-induced currents, two-electrode voltage clamp in Xenopus laevis oocytes. The class given is cell-based, rat α1 and γ2s, human β2. To be noted: change vs initial response, compared with Cys-less; 1 mM GABA; DTT 2 mM 2 min.
The target of experiment [2] is α1β2γ2 Cys-less GABAAR [α1(C234A,C293A)β2(C288A)γ2(C244A,C303A)] (UniProt P18508+P47870+P62813, C260A/C282A/C312A/C319A/C341A). Described as above. The class given is cell-based, rat α1 and γ2s, human β2. To be noted: for Modulation of the Cys-less receptor compared with WT: Cys-less versus wild-type α1β2γ2.
The target in experiment [3] is α1(Q229C)β2(M286C)γ2 GABAAR (UniProt P18508+P47870+P62813, C260A/C282A/C312A/C319A/C341A/M310C/Q255C). The experiment is described as above. The conditions noted are these: change vs initial response, compared with Cys-less; EC50 GABA; DTT 2 mM 2 min. It is filed as cell-based, rat α1 and γ2s, human β2.
In experiment [4] the target is α1β2(T225C,C288)γ2 GABAAR (UniProt P18508+P47870+P62813, C260A/C282A/C319A/C341A/T249C). The description is as above. The class given is cell-based, rat α1 and γ2s, human β2. The conditions noted are these: change vs initial response, compared with Cys-less; EC50 GABA; DTT 2 mM 2 min.
Experiment [5] has as its target α1β2(N265C,M286C)γ2 GABAAR (UniProt P18508+P47870+P62813, C260A/C282A/C312A/C319A/C341A/M310C/N289C). Described as above. The class given is cell-based, rat α1 and γ2s, human β2. The conditions noted are these: change vs initial response, compared with Cys-less; EC50 GABA; DTT 2 mM 2 min.
The target of experiment [6] is α1β2(N265C,C288)γ2 GABAAR (UniProt P18508+P47870+P62813, C260A/C282A/C319A/C341A/N289C). The description is as above. It is filed as cell-based, rat α1 and γ2s, human β2.
For experiment [7], the target named is α1β2(T225C,L285C)γ2 GABAAR (UniProt P18508+P47870+P62813, C260A/C282A/C312A/C319A/C341A/L309C/T249C). The description is as above. The class given is cell-based, rat α1 and γ2s, human β2.
For experiment [8], the target named is α1(L232C)β2(M286C)γ2 GABAAR (UniProt P18508+P47870+P62813, C260A/C282A/C312A/C319A/C341A/L258C/M310C). Described as above. It is filed as cell-based, rat α1 and γ2s, human β2.
For experiment [9], the target named is α1(Q229C)β2(N265C)γ2 GABAAR (UniProt P18508+P47870+P62813, C260A/C282A/C312A/C319A/C341A/N289C/Q255C). Described as above. The class given is cell-based, rat α1 and γ2s, human β2. To be noted: change vs initial response, compared with Cys-less; EC50 GABA; DTT 2 mM 2 min.
Experiment [10] has as its target α1β2(N265C,L285C)γ2 GABAAR (UniProt P18508+P47870+P62813, C260A/C282A/C312A/C319A/C341A/L309C/N289C). The experiment is described as above. It is filed as cell-based, rat α1 and γ2s, human β2.
For experiment [11], the target named is α1β2(N265C,F289C)γ2 GABAAR (UniProt P18508+P47870+P62813, C260A/C282A/C312A/C319A/C341A/F313C/N289C). Described as above. The class given is cell-based, rat α1 and γ2s, human β2. The conditions noted are these: change vs initial response, compared with Cys-less; EC50 GABA; DTT 2 mM 2 min.
The target in experiment [12] is α1(L232C)β2(F289C)γ2 GABAAR (UniProt P18508+P47870+P62813, C260A/C282A/C312A/C319A/C341A/F313C/L258C). The experiment is described as above. It is filed as cell-based, rat α1 and γ2s, human β2. To be noted: change vs initial response, compared with Cys-less; 100 μM GABA; DTT 2 mM 2 min.
In experiment [13] the target is β2C288-containing GABAARs (UniProt P18508+P47870+P62813, C260A/C282A/C319A/C341A). The description is as above. To be noted: EC10 GABA; BMTS 0.5 mM co-applied with maximal GABA. The class given is cell-based, rat α1 and γ2s, human β2.
In experiment [14] the target is α1(L232C)β2γ2 GABAAR (UniProt P18508+P47870+P62813, C260A/C282A/C312A/C319A/C341A/L258C). The description is as above. It is filed as cell-based, rat α1 and γ2s, human β2.
In experiment [15] the target is α1β2(M286C)γ2 GABAAR (UniProt P18508+P47870+P62813, C260A/C282A/C312A/C319A/C341A/M310C). The description is as above. It is filed as cell-based, rat α1 and γ2s, human β2.
Experiment [16] concerns the target α1β2(T225C)γ2 GABAAR (UniProt P18508+P47870+P62813, C260A/C282A/C312A/C319A/C341A/T249C). Described as above. It is filed as cell-based, rat α1 and γ2s, human β2. To be noted: EC10 GABA; BMTS 0.5 mM co-applied with maximal GABA.
Experiment [17] has as its target β2(L285C)-containing GABAARs (UniProt P18508+P47870+P62813, C260A/C282A/C312A/C319A/C341A/L309C). The experiment is described as above. It is filed as cell-based, rat α1 and γ2s, human β2.
Experiment [18] addresses β2(N265C)-containing GABAARs (UniProt P18508+P47870+P62813, C260A/C282A/C312A/C319A/C341A/N289C). The experiment is described as above. The class given is cell-based, rat α1 and γ2s, human β2.
Experiment [19] deals with α1(Q229C)β2γ2 GABAAR (UniProt P18508+P47870+P62813, C260A/C282A/C312A/C319A/C341A/Q255C). The description is as above. The conditions noted are these: Butanol (33 mM) modulation of EC10 GABA; after versus before BMTS labeling. It is filed as cell-based, rat α1 and γ2s, human β2.
The target of experiment [20] is α1β2(F289C)γ2 GABAAR (UniProt P18508+P47870+P62813, C260A/C282A/C312A/C319A/C341A/F313C). The experiment is described as above. It is filed as cell-based, rat α1 and γ2s, human β2.
The subject of experiment [21] is bovine GABAAR. To be noted: ref Li et al. 2010; cited from earlier work.
Experiment [22] concerns wild-type GLIC. To be noted: intra-subunit binding; ref Weng et al. 2010; cited from earlier work.
The test system of experiment [23] is mutated alcohol-sensitive GLIC. To be noted: inter-subunit binding; ref Howard et al. 2011; cited from earlier work.
The test system of experiment [24] is recombinant α1β3γ2 GABAARs. The conditions noted are these: in the presence of GABA; ref Chiara et al. 2013; cited from earlier work.
[25] abbreviates: change vs initial response, compared with Cys-less, EC50 GABA, DTT 2 mM 2 min.
The mark [26] stands for this setting: EC10 GABA, BMTS 0.5 mM co-applied with maximal GABA.
Where [27] appears, read: Butanol (33 mM) modulation of EC10 GABA, after versus before BMTS labeling.
The mark [28] stands for this setting: Butanol modulation of EC10 GABA, 11 and 33 mM, after Cu^++:Phen versus after DTT.
[29] abbreviates: single cysteine mutant, no treatment.
Where [30] appears, read: Isoflurane 0.3 mM on EC10 GABA, after versus before BMTS labeling.
The mark [31] stands for this setting: Isoflurane 0.3 and 0.9 mM on EC10 GABA, after Cu^++:Phen versus after DTT.

Chain of β2(N265C)-containing GABAARs (P62813 28-455 C260A/C319A): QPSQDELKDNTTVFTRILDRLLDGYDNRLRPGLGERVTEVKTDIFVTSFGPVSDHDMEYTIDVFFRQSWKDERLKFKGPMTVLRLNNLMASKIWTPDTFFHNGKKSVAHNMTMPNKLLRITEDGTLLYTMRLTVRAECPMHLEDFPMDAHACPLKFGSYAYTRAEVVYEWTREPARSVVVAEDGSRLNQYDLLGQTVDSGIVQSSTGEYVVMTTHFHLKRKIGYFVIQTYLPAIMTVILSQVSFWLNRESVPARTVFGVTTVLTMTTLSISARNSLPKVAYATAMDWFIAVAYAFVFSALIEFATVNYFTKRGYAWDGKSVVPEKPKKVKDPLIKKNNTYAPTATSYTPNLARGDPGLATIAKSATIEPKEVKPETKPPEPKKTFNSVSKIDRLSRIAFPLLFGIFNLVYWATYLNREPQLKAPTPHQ
Chain of β2(N265C)-containing GABAARs (P47870 25-474 isoform P47870-1 N289C/C312A limits assumed): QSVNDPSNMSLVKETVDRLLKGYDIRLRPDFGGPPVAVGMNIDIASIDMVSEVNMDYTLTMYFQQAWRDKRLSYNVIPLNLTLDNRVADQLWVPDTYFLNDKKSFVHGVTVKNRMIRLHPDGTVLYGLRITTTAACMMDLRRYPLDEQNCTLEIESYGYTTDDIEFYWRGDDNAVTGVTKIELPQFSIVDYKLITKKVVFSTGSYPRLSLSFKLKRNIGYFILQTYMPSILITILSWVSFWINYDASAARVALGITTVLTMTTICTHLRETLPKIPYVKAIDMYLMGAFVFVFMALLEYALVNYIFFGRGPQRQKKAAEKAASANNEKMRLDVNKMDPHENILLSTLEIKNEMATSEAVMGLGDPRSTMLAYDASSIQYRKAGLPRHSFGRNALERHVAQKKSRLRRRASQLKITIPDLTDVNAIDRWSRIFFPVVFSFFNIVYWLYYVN
Chain of β2(N265C)-containing GABAARs (P18508 39-466 C282A/C341A): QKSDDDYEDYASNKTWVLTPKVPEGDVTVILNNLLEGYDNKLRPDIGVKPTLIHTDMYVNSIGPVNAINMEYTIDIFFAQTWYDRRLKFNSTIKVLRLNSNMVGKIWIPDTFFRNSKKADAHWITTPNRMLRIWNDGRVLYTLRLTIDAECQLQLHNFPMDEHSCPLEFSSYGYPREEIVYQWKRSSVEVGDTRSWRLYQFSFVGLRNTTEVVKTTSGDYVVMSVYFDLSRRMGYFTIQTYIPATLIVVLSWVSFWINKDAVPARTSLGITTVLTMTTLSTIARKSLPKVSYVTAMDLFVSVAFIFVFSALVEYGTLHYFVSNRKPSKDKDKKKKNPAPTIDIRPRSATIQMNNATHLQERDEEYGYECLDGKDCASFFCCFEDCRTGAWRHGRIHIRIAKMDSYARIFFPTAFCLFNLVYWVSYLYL
Chain of α1β2(F289C)γ2 GABAAR (P62813 28-455 C260A/C319A): as the sequence (P62813 28-455 C260A/C319A) above
Chain of α1β2(F289C)γ2 GABAAR (P47870 25-474 isoform P47870-1 C312A/F313C limits assumed): as the sequence (P47870 25-474 isoform P47870-1 N289C/C312A limits assumed) above, with C265N, F289C counted along it
Chain of α1β2(F289C)γ2 GABAAR (P18508 39-466 C282A/C341A): as the sequence (P18508 39-466 C282A/C341A) above
Chain of α1β2(M286C)γ2 GABAAR (P62813 28-455 C260A/C319A): as the sequence (P62813 28-455 C260A/C319A) above
Chain of α1β2(M286C)γ2 GABAAR (P47870 25-474 isoform P47870-1 M310C/C312A limits assumed): as the sequence (P47870 25-474 isoform P47870-1 N289C/C312A limits assumed) above, with C265N, M286C counted along it
Chain of α1β2(M286C)γ2 GABAAR (P18508 39-466 C282A/C341A): as the sequence (P18508 39-466 C282A/C341A) above

With `O[C@@H](CS)[C@@H](O)CS` (racemic) [DTT, dithiothreitol], the “GABA responses After DTT” value was “Increase” in [1]; “No change” in experiment [2] (change vs initial response, EC50 GABA, DTT 2 mM 2 min); “Increase” in [3]; “Increase” in [4]; “Decrease” in experiment [5]; “No change” in experiment [6] (setting [25]). Besides, the “GABA responses After DTT” value in experiment [7] (setting [25]) was “No change”; in experiment [8] (setting [25]), “No change”; in experiment [9], “Decrease”; in [10] (setting [25]) it was “No change”; in experiment [11], “Increase”; in experiment [12], “Increase”.
Take `CCCCSS(C)(=O)=O` [BMTS, butyl methanethiosulfonate]: the “GABA responses after BMTS + GABA” value in [2] (setting [26]) was “No change”; in [13], “No change”; in [14] (setting [26]) it was “Increase”; in [15] (setting [26]), “Increase”; in [16], “No net change”.
On to `CCCCO` [Butanol, butanol], for which the “Butanol effect after BMTS labeling” value in [2] (setting [27]) is “No change/ Small decrease”; in [17] (setting [27]) it was “No change”; in experiment [14] (setting [27]), “No change”; in experiment [15] (setting [27]), “Decrease”; in experiment [18] (setting [27]) it was “Decrease”; in [19], “No change”. Further, the “Butanol effect After crosslink” value in experiment [2] (setting [28]) is “No change”; in experiment [6] (setting [28]), “Decrease”; in experiment [7] (setting [28]) it was “Decrease”; in [8] (setting [28]), “No change”; in experiment [10] (setting [28]), “Decrease”. The “Butanol potentiation of GABA responses compared with the Cys-less receptor” value in experiment [17] (setting [29]), in experiment [14] (setting [29]), in [15] (setting [29]), in experiment [18] (setting [29]) and in experiment [20] (setting [29]) was “decreased” in each case. Besides, in experiment [7] (Butanol on EC10 GABA, after Cu^++:Phen versus after DTT), the “Change in the butanol potentiation after oxidation” value was −51%.
In the case of `FC(F)OC(Cl)C(F)(F)F` (stereo not drawn) [Isoflurane], the “Isoflurane potentiation after BMTS labeling” value in experiment [15] (setting [30]) and in [18] (setting [30]) was “decreased” each time. Also, the “Isoflurane potentiation after oxidation (crosslink)” value in [7] (setting [31]) is on record as “decrease”. Also, the “Isoflurane effect after oxidation (crosslink)” value in experiment [8] (setting [31]) is “no changes”. For the same compound, the “Isoflurane effect after BMTS labeling” value in [20] (EC10 GABA, after versus before BMTS treatment, data not shown) is “switched from very small, and even inhibitory effects, to potentiation”. The “Isoflurane potentiation of GABA responses compared with the Cys-less receptor” value in experiment [20] (setting [29]) is “decreased”. Moreover, the “Block of etomidate analog photolabeling” value in experiment [21] was “isoflurane could”.
`FC(F)OC(F)C(F)(F)F` (stereo not drawn) [desflurane]: in experiment [22], the “Effect on channel function” value was “inhibits”.
As to `CCO` [ethanol], the “Modulation of the Cys-less receptor compared with WT” value in experiment [2] is on record as “essentially the same as WT”. The “Effect on channel function” value in experiment [23] is recorded as “potentiates”.
As for `CCCCCCCCO` [octanol], the Block of photolabeling entry in experiment [24] is reported as “blocked”. For the same compound, in experiment [21], the “Block of etomidate analog photolabeling” value is on record as “neither octanol nor ethanol could block”.
As to `CC(C)c1cccc(C(C)C)c1O` [propofol], the “Effect on channel function” value in experiment [22] is listed as “inhibits”.
For `[Zn]` [zinc], the “Modulation of the Cys-less receptor compared with WT” value in [2] is given as “essentially the same as WT”.

The values above are taken from PMC4186771 (Journal of neurochemistry, 2013).
